Measured values from PubChem BioAssay AID1963966 (Molecular Pharmacology Branch, DTP, NCI, 2024).

Test system: 935938-334-R-J1-PDC spheroids with HUVEC/MSC, viability
Assay: Anticancer human tumor 935938-334-R-J1-PDC patient-derived small intestine adenocarcinoma cell line growth inhibition [PI3K]
Details: for IC50: curve of first compound; for viability, T/C: stronger effect = lower value
Procedure, shortened: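 Targeted small molecules plus PI3K inhibitors, half-log dose series from Cmax (default top 10 microM), were applied to heterotypic spheroids of cancer cells with HUVEC and MSCs. Viability indicated growth inhibition.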

[1] = second compound 0.0316 µM, first compound 0.0316 µM
[2] = second compound 0.0316 µM, first compound 0.1 µM
[3] = second compound 0.1 µM, first compound 0.0316 µM
[4] = second compound 0.1 µM, first compound 0.1 µM
[5] = second compound 0.316 µM, first compound 0.0316 µM
[6] = second compound 0.316 µM, first compound 0.1 µM
[7] = second compound 1 µM, first compound 0.0316 µM
[8] = second compound 1 µM, first compound 0.1 µM
[9] = second compound 3.16 µM, first compound 0.0316 µM
[10] = second compound 3.16 µM, first compound 0.1 µM
[11] = second compound 10 µM, first compound 0.0316 µM
[12] = second compound 10 µM, first compound 0.1 µM
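Further: compound exposure lasted seven days before viability was read.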
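Wherever viability, T/C is given: percent of vehicle DMSO treated spheroid viability so 100% = untreated.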

## Cn1ncc(Cl)c1-c1cc(C(=O)NC(CN)Cc2cccc(F)c2)sc1Cl (centres undefined) + Cc1nc(NC(=O)N2CCCC2C(N)=O)sc1-c1ccnc(C(C)(C)C(F)(F)F)c1
Second compound 0.0316 µM
  IC50: 3010 nM
Second compound 0.1 µM
  IC50: 743 nM
Second compound 0.316 µM
  IC50: 776 nM
Second compound 1 µM
  IC50: 266 nM
Second compound 3.16 µM
  IC50: 144 nM
Second compound 10 µM
  IC50: < 31.6 nM
[1]
  viability, T/C: 83.4%
[2]
  viability, T/C: 87.5%
Second compound 0.0316 µM, first compound 0.316 µM
  viability, T/C: 61.9%
Second compound 0.0316 µM, first compound 1 µM
  viability, T/C: 67.4%
Second compound 0.0316 µM, first compound 3.16 µM
  viability, T/C: 38.1%
Second compound 0.0316 µM, first compound 10 µM
  viability, T/C: 52.8%
[3]
  viability, T/C: 100%
[4]
  viability, T/C: 77.2%
Second compound 0.1 µM, first compound 0.316 µM
  viability, T/C: 60.4%
Second compound 0.1 µM, first compound 1 µM
  viability, T/C: 45.9%
Second compound 0.1 µM, first compound 3.16 µM
  viability, T/C: 37%
Second compound 0.1 µM, first compound 10 µM
  viability, T/C: 24.3%
[5]
  viability, T/C: 90.7%
[6]
  viability, T/C: 67.3%
Second compound 0.316 µM, first compound 0.316 µM
  viability, T/C: 60.6%
Second compound 0.316 µM, first compound 1 µM
  viability, T/C: 45.1%
Second compound 0.316 µM, first compound 3.16 µM
  viability, T/C: 43.3%
Second compound 0.316 µM, first compound 10 µM
  viability, T/C: 26.8%
[7]
  viability, T/C: 48.2%
[8]
  viability, T/C: 62.4%
Second compound 1 µM, first compound 0.316 µM
  viability, T/C: 42.6%
Second compound 1 µM, first compound 1 µM
  viability, T/C: 46.9%
Second compound 1 µM, first compound 3.16 µM
  viability, T/C: 35.7%
Second compound 1 µM, first compound 10 µM
  viability, T/C: 23.8%
[9]
  viability, T/C: 53.5%
[10]
  viability, T/C: 62.5%
Second compound 3.16 µM, first compound 0.316 µM
  viability, T/C: 34.4%
Second compound 3.16 µM, first compound 1 µM
  viability, T/C: 38%
Second compound 3.16 µM, first compound 3.16 µM
  viability, T/C: 27.1%
Second compound 3.16 µM, first compound 10 µM
  viability, T/C: 22.4%
[11]
  viability, T/C: 37.9%
[12]
  viability, T/C: 35.8%
Second compound 10 µM, first compound 0.316 µM
  viability, T/C: 39.2%
Second compound 10 µM, first compound 1 µM
  viability, T/C: 39%
Second compound 10 µM, first compound 3.16 µM
  viability, T/C: 28.1%
Second compound 10 µM, first compound 10 µM
  viability, T/C: 26.7%

## Cn1ncnc1[C@H]1c2n[nH]c(=O)c3cc(F)cc(c23)N[C@@H]1c1ccc(F)cc1 + Cc1nc(NC(=O)N2CCCC2C(N)=O)sc1-c1ccnc(C(C)(C)C(F)(F)F)c1
Second compound 0.0316 µM
  IC50: > 100 nM
Second compound 0.1 µM
  IC50: > 100 nM
Second compound 0.316 µM
  IC50: > 100 nM
Second compound 1 µM
  IC50: > 100 nM
Second compound 3.16 µM
  IC50: 16.1 nM
Second compound 10 µM
  IC50: < 0.316 nM
Second compound 0.0316 µM, first compound 0.000316 µM
  viability, T/C: 83.6%
Second compound 0.0316 µM, first compound 0.001 µM
  viability, T/C: 95.8%
Second compound 0.0316 µM, first compound 0.00316 µM
  viability, T/C: 112%
Second compound 0.0316 µM, first compound 0.01 µM
  viability, T/C: 87.8%
[1]
  viability, T/C: 72.1%
[2]
  viability, T/C: 99%
Second compound 0.1 µM, first compound 0.000316 µM
  viability, T/C: 81%
Second compound 0.1 µM, first compound 0.001 µM
  viability, T/C: 98.7%
Second compound 0.1 µM, first compound 0.00316 µM
  viability, T/C: 99.9%
Second compound 0.1 µM, first compound 0.01 µM
  viability, T/C: 67.5%
[3]
  viability, T/C: 84.2%
[4]
  viability, T/C: 83.5%
Second compound 0.316 µM, first compound 0.000316 µM
  viability, T/C: 89.1%
Second compound 0.316 µM, first compound 0.001 µM
  viability, T/C: 67.3%
Second compound 0.316 µM, first compound 0.00316 µM
  viability, T/C: 78%
Second compound 0.316 µM, first compound 0.01 µM
  viability, T/C: 61.4%
[5]
  viability, T/C: 69.7%
[6]
  viability, T/C: 78.7%
Second compound 1 µM, first compound 0.000316 µM
  viability, T/C: 62.2%
Second compound 1 µM, first compound 0.001 µM
  viability, T/C: 70%
Second compound 1 µM, first compound 0.00316 µM
  viability, T/C: 67.2%
Second compound 1 µM, first compound 0.01 µM
  viability, T/C: 57.6%
[7]
  viability, T/C: 60%
[8]
  viability, T/C: 55.4%
Second compound 3.16 µM, first compound 0.000316 µM
  viability, T/C: 63.1%
Second compound 3.16 µM, first compound 0.001 µM
  viability, T/C: 53.7%
Second compound 3.16 µM, first compound 0.00316 µM
  viability, T/C: 46.6%
Second compound 3.16 µM, first compound 0.01 µM
  viability, T/C: 58.2%
[9]
  viability, T/C: 51.7%
[10]
  viability, T/C: 42%
Second compound 10 µM, first compound 0.000316 µM
  viability, T/C: 39%
Second compound 10 µM, first compound 0.001 µM
  viability, T/C: 38.7%
Second compound 10 µM, first compound 0.00316 µM
  viability, T/C: 43.8%
Second compound 10 µM, first compound 0.01 µM
  viability, T/C: 33%
[11]
  viability, T/C: 50.5%
[12]
  viability, T/C: 38.5%
